From patent US5043340A, “Derivatives of 4-desacetyl VLB C-3 carboxhydrazide” (Eli Lilly and Company, priority 1990, dated 1991)
Structures can show the parent of a compound that is named as a salt. Where two headings read alike, the source gives them in different places. Blank lines part the entries; values can stand above or below the molecule they belong to.

Assays:
[1] = tested on: experimental malignancies; conditions: in vivo; cited from earlier work
pKa = assay type: physicochemical; conditions: for pKa (first value) / pKa (second value) / pKa (third value): 66% DMF
[2] = tested on: human leukemic cells (CCRF-CEM cell line); assay: CCRF-CEM Cytotoxicity Assay (72 h, Coulter particle counter); assay type: cell-based; conditions: 37° C., read-out: IC50 (concentration giving 50% growth inhibition)
Experimental: The CEM cells were grown in RPMI 1640 media (MA Bioproducts) at 37° C. in humidified atmospheric conditions of 95% air and 5% CO2. The cells were grown in static suspension and maintained in log growth phase at a concentration of 3-7×10^5 cells/ml. The cells were dispersed in wells at a concentration of 4.8×10^4 /well. The drug was dissolved in dimethyl sulfoxide and was added at different dilutions to the cluster plates (wells). The cluster plates were incubated at 37° C. for 72 hours. After 72 hours the wells were read using a ZBI Coulter particle counter. Table 3 below gives the results of such testing of several compounds represented by Formula I above. In the table, Column 1 gives the name of the compound and Column 2 gives the IC50 (concentration giving 50% growth inhibition) in μg/ml.

[3] = tested on: P3/UCLA lung adenocarcinoma xenografts; assay: in vivo test against xenografts of P3/UCLA lung adenocarcinoma in female nude mice; conditions: days 2, 5 and 8, 28-day results
Experimental: The compounds were tested in vivo against xenografts of P3/UCLA lung adenocarcinoma in female nude mice. The test was begun by implanting each mouse with 10^7 P3/UCLA tumor cells, subcutaneously. On each of days 2, 5, and 8 after implantation, each mouse was injected with a conjugate or a compound in physiological buffered saline. Control mice were injected with saline only. The doses of conjugate or of vinca intermediate (based on vinca hydrazide content) are indicated below. The size of the tumors induced by implantation was measured on days 14, 21, and 28 after implantation. Each treatment group consisted of five mice.

[4] = tested on: human lung adenocarcinoma cells (P3/UCLA cell line); assay: P3/UCLA - GIEMSA ASSAY (5 days); assay type: cell-based; conditions: 120 h, 37° C., free compound, read-out: IC50 (concentration giving 50% growth inhibition)
[5] = solvent not given, read-out: pKa (first value)
[6] = 66% dmf, read-out: pKa (second value)
[7] = 66% dmf, read-out: pKa (first value)
[8] = 66% dmf, read-out: pKa (third value)
[9] = 1.00 mg/kg (based on vinca hydrazide content)
[10] = 2.00 mg/kg (based on vinca hydrazide content)

Molecule: CCC1(O)CN2CCc3c([nH]c4ccccc34)C(C(=O)OC)(c3cc4c(cc3OC)N(C)C3C(O)(C(=O)OC)CC5(CC)C=CCN6CCC43C65)CC(C2)C1O (centres unmarked) [4-desacetoxy-3'-hydroxyvinblastine]
found active in the treatment of experimental malignancies in animals [1]: active

Molecule: CCC1(O)CC2CN(CCc3c([nH]c4ccccc34)C(C(=O)OC)(c3cc4c(cc3OC)N(C)C3C(O)(C(=O)OC)CC5(CC)C=CCN6CCC43C65)C2)C1 (centres unmarked) [4-desacetoxyvinblastine]
found active in the treatment of experimental malignancies in animals [1]: active

pKa (pKa; [5]): 7.1
Molecule: CC(=O)CCCC(=O)NCCC(=O)O [6-[(2-Carboxyethyl)amino]-2,6-dioxohexane]

Molecule: CCC1(O)CC2CN(CCc3c([nH]c4ccccc34)C(C(=O)OC)(c3cc4c(cc3OC)N(C)C3C(O)(C(=O)NN=C(C)CCCC(=O)O)C(O)C5(CC)C=CCN6CCC43C65)C2)C1 (centres unmarked) [Example 2, 4-Desacetyl VLB C-3 N^2-(4-carboxy-1-methylbutylidene)carboxhydrazide]
pKa (first value) (pKa): 5.1
pKa (second value) (pKa): 6.6
pKa (third value) (pKa): 7.7

Molecule: CCC1(O)CC2CN(CCc3c([nH]c4ccccc34)C(C(=O)OC)(c3cc4c(cc3OC)N(C)C3C(O)(C(=O)NN=C(C)CCCCC(=O)O)C(O)C5(CC)C=CCN6CCC43C65)C2)C1 (centres unmarked) [Example 4, 4-Desacetyl VLB C-3 N^2-(5-carboxy-1-methylpentylidene)carboxhydrazide]
pKa (first value) (pKa): 5.3
pKa (third value) (pKa): 8.1
pKa (pKa; [6]): 7

Molecule: CCC1(O)CC2CN(CCc3c([nH]c4ccccc34)C(C(=O)OC)(c3cc4c(cc3OC)N(C)C3C(O)(C(=O)NN=C(C)CCCCC(=O)O)C(O)C5(CC)C=CCN6CCC43C65)C2)C1 (centres unmarked) [Example 5, 4-Desacetyl VLB C-3 N^2-(5-carboxy-1-methylpentylidene)carboxhydrazidesulfate salt]
IC50 [2]: 0.2 µg/mL

Molecule: CCC1(O)CC2CN(CCc3c([nH]c4ccccc34)C(C(=O)OC)(c3cc4c(cc3OC)N(C)C3C(O)(C(=O)NN=C(C)CCCC(=O)NCCC(=O)O)C(O)C5(CC)C=CCN6CCC43C65)C2)C1 (centres unmarked) [Example 6, 4-Desacetyl VLB C-3 N^2-(5-[(2-carboxyethyl)amino]-1-methyl-5-oxopentylidene)carboxhydrazide]
pKa (pKa; [7]): 5.1
pKa (pKa; [6]): 6.6
pKa (pKa; [8]): 7.3

Molecule: CCC1(O)CC2CN(CCc3c([nH]c4ccccc34)C(C(=O)OC)(c3cc4c(cc3OC)N(C)C3C(O)(C(=O)NN=C(C)CCCC(=O)NCCC(=O)O)C(O)C5(CC)C=CCN6CCC43C65)C2)C1 (centres unmarked) [Example 7, 4-Desacetyl VLB C-3 N^2-(5-[(2-carboxyethyl)amino]-1-methyl-5-oxopentylidene)carboxhydrazide sulfate salt]
IC50 [2]: 0.095 µg/mL

Molecule: CCC1(O)CC2CN(CCc3c([nH]c4ccccc34)C(C(=O)OC)(c3cc4c(cc3OC)N(C)C3C(O)(C(=O)NN=C(C)CCCCC(=O)NCCC(=O)O)C(O)C5(CC)C=CCN6CCC43C65)C2)C1 (centres unmarked) [Example 8, 4-Desacetyl VLB C-3 N^2-(6-[(2-carboxyethyl)amino]-1-methyl-6-oxohexylidene)carboxhydrazide]
pKa (pKa; [7]): 5
pKa (pKa; [6]): 6.2
pKa (pKa; [8]): 7.8

Molecule: CCC1(O)CC2CN(CCc3c([nH]c4ccccc34)C(C(=O)OC)(c3cc4c(cc3OC)N(C)C3C(O)(C(=O)NN=C(C)CCCCC(=O)NCCC(=O)O)C(O)C5(CC)C=CCN6CCC43C65)C2)C1 (centres unmarked) [Example 9, 4-Desacetyl VLB C-3 N^2-(6-[(2-carboxyethyl)amino]-1-methyl-6-oxohexylidene)carboxhydrazide sulfate salt]
IC50 [2]: 0.068 µg/mL
% Inhibition [3, 9]: 43%
% Inhibition [3, 10]: 35%
IC50 [4]: 0.043 µg/mL

Molecule: CCC1(O)CC2CN(CCc3c([nH]c4ccccc34)C(C(=O)OC)(c3cc4c(cc3OC)N(C)C3C(O)(C(=O)NNC(C)CCC(=O)O)C(O)C5(CC)C=CCN6CCC43C65)C2)C1 (centres unmarked) [Example 10, 4-Desacetyl VLB C-3 N^2-(3-carboxy-1-methylpropyl)carboxhydrazide]
pKa (first value) (pKa): 5.3
pKa (second value) (pKa): 6.9
pKa (third value) (pKa): 7.9

Molecule: CCC1(O)CC2CN(CCc3c([nH]c4ccccc34)C(C(=O)OC)(c3cc4c(cc3OC)N(C)C3C(O)(C(=O)NNC(C)CCC(=O)O)C(O)C5(CC)C=CCN6CCC43C65)C2)C1 (centres unmarked) [Example 11, 4-Desacetyl VLB C-3 N^2-(3-carboxy-1-methylpropyl)carboxhydrazide sulfate salt]
IC50 [2]: 0.1 µg/mL

Molecule: CCC1(O)CC2CN(CCc3c([nH]c4ccccc34)C(C(=O)OC)(c3cc4c(cc3OC)N(C)C3C(O)(C(=O)NNC(C)CCCCC(=O)O)C(O)C5(CC)C=CCN6CCC43C65)C2)C1 (centres unmarked) [Example 13, 4-Desacetyl VLB C-3 N^2-(5-carboxy-1-methylpentyl)carboxhydrazide sulfate salt]
IC50 [2]: 0.4 µg/mL

Molecule: CCC1(O)CC2CN(CCc3c([nH]c4ccccc34)C(C(=O)OC)(c3cc4c(cc3OC)N(C)C3C(O)(C(=O)NNC(C)CCCC(=O)NCCC(=O)O)C(O)C5(CC)C=CCN6CCC43C65)C2)C1 (centres unmarked) [Example 14, 4-Desacetyl VLB C-3 N^2-(5-[(2-carboxyethyl)amino]-1-methyl-5-oxopentyl)carboxhydrazide]
pKa (pKa; [7]): 5.7
pKa (pKa; [6]): 6.7
pKa (pKa; [8]): 7.9

Molecule: CCC1(O)CC2CN(CCc3c([nH]c4ccccc34)C(C(=O)OC)(c3cc4c(cc3OC)N(C)C3C(O)(C(=O)NNC(C)CCCC(=O)NCCC(=O)O)C(O)C5(CC)C=CCN6CCC43C65)C2)C1 (centres unmarked) [Example 15, 4-Desacetyl VLB C-3 N^2-(5-[(2-carboxyethyl)amino]1-methyl-5-oxopentyl)carboxhydrazide sulfate salt]
IC50 [2]: 0.046 µg/mL

Molecule: CCC1(O)CC2CN(CCc3c([nH]c4ccccc34)C(C(=O)OC)(c3cc4c(cc3OC)N(C)C3C(O)(C(=O)NNC(C)CCCCC(=O)NCCC(=O)O)C(O)C5(CC)C=CCN6CCC43C65)C2)C1 (centres unmarked) [Example 17, 4-Desacetyl VLB C-3 N^2-(6-[(2-carboxyethyl)amino]-1-methyl-6-oxohexyl)carboxhydrazide sulfate salt]
IC50 [2]: 0.039 µg/mL
% Inhibition [3, 9]: 20%
% Inhibition [3, 10]: 39%
IC50 [4]: 0.217 µg/mL

Molecule: CCC1(O)CC2CN(CCc3c([nH]c4ccccc34)C(C(=O)OC)(c3cc4c(cc3OC)N(C)C3C(O)(C(=O)NNC(C)CCCCC(=O)NCCC(=O)OC)C(O)C5(CC)C=CCN6CCC43C65)C2)C1 (centres unmarked) [Example 30, 4-Desacetyl VLB C-3 N^2-(6-[(3-methoxy-3-oxopropyl)amino]-1-methyl-6-oxohexyl)carboxhydrazide]
pKa (pKa; [5]): 5.4
pKa (pKa; solvent not given, read-out: pKa (second value)): 7.5

Molecule: CC[C@]1(O)C[C@@H]2CN(CCc3c([nH]c4ccccc34)[C@@](C(=O)OC)(c3cc4c(cc3OC)N(C)[C@H]3[C@@](O)(C(=O)OC)[C@H](OC(C)=O)[C@]5(CC)C=CCN6CC[C@]43[C@@H]65)C2)C1 [VLB, vincaleukoblastine]
found active in the treatment of experimental malignancies in animals [1]: active

Molecule: CCC1CC2CN(CCc3c([nH]c4ccccc34)C(C(=O)OC)(c3cc4c(cc3OC)N(C)C3C(O)(C(=O)OC)C(OC(C)=O)C5(CC)C=CCN6CCC43C65)C2)C1 (centres unmarked) [deoxy VLB "A"]
found active in the treatment of experimental malignancies in animals [1]: active

Molecule: CCC1(O)CN2CCc3c([nH]c4ccccc34)C(C(=O)OC)(c3cc4c(cc3OC)N(C)C3C(O)(C(=O)OC)C(OC(C)=O)C5(CC)C=CCN6CCC43C65)CC(O)(C2)C1 (centres unmarked) [leurocolombine]
found active in the treatment of experimental malignancies in animals [1]: active

Molecule: CC[C@]12CN3CCc4c([nH]c5ccccc45)[C@@](C(=O)OC)(c4cc5c(cc4OC)N(C=O)[C@H]4[C@@](O)(C(=O)OC)[C@H](OC(C)=O)[C@]6(CC)C=CCN7CC[C@]54[C@@H]76)C[C@@H](C3)[C@H]1O2 [leuroformine]
found active in the treatment of experimental malignancies in animals [1]: active

Molecule: CC[C@]12CN3CCc4c([nH]c5ccccc45)[C@@](C(=O)OC)(c4cc5c(cc4OC)N(C)[C@H]4[C@@](O)(C(=O)OC)[C@H](OC(C)=O)[C@]6(CC)C=CCN7CC[C@]54[C@@H]76)C[C@H](C3)[C@H]1O2 [leurosine]
found active in the treatment of experimental malignancies in animals [1]: active

Molecule: CCC1(O)CN2CCc3c([nH]c4ccccc34)C(C(=O)OC)(c3cc4c(cc3OC)N(C)C3C(O)(C(=O)OC)C(OC(C)=O)C5(CC)C=CCN6CCC43C65)CC(C2)C1O (centres unmarked) [vincadioline]
found active in the treatment of experimental malignancies in animals [1]: active

Molecule: CC[C@]1(O)C[C@H]2CN(CCc3c([nH]c4ccccc34)[C@@](C(=O)OC)(c3cc4c(cc3OC)N(C=O)[C@H]3[C@@](O)(C(=O)OC)[C@H](OC(C)=O)[C@]5(CC)C=CCN6CC[C@]43[C@@H]65)C2)C1 [vincristine, leurocristine]
found active in the treatment of experimental malignancies in animals [1]: active

Molecule: leurosidine
found active in the treatment of experimental malignancies in animals [1]: active
